Test results: US9803021B2 (The Regents of the University of California, priority 2012, dated 2017)
“Also recorded” adds a separate entry of the source.

Columns and labels:
OCI-My5 [1] = assay: Cell cycle analysis (PI DNA content, flow cytometry); type: cell-based, human; details: OCI-My5, 500 pM, 4 days
Protocol: (§1) Cells were incubated with 1 ml of hypotonic DNA staining buffer (1 mg/ml sodium citrate, 100 μg/ml PI, 20 μg/ml RNase A, and 0.3% Triton X-100 in dH2O) for 30-60 min at 4° C. in the dark. Cells were analyzed by flow cytometry and cell cycle analysis performed using FlowJo software with the Watson Model.
(§2) Cells were incubated with 1 ml of hypotonic DNA staining buffer (1 mg/ml sodium citrate, 100 μg/ml PI, 20 μg/ml RNase A, and 0.3% Triton X-100) for 30-60 minutes at 4° C. in the dark. Cells were analyzed by flow cytometry and cell cycle analysis performed using FlowJo software with the Watson Model.

MM1-144 = assay: as above; type: cell-based, human; details: MM1-144, 500 pM, 4 days
Protocol: as §1, §2

ANBL-6 = assay: as above; type: cell-based, human; details: ANBL-6, 500 pM, 4 days
Protocol: as §1, §2

Delta 47 = assay: MTS assay (cell viability / metabolic activity); type: cell-based, human
Protocol: (§3) Percent cell viability was determined using MTS solution (Promega, Madison, Wis.) by measuring absorbance at 490 nm using a Synergy HT Multi-Detection Microplate Reader (BioTek Instruments, Inc., Winooski, Vt.) with untreated cells being 100%. GraphPad Prism (GraphPad Software Inc., La Jolla, Calif.) was used to analyze data by non-linear regression with the log (inhibitor) vs. the response with a variable slope with the IC50 calculated. Data are expressed as a percentage of maximum metabolic activity. The experiments were performed in triplicate.
(§4) To determine if the HMCLs were sensitive to treatment with IFNα fusion protein, HMCLs were incubated with varying concentrations of anti-CD138-IFNα, and cell viability was assessed. Anti-CD138-IFNα was used to target IFNα to the MM cell lines while anti-CD20-IFNα was used as an untargeted control. After 3 days of treatment, cell viability was measured by MTS activity. The MM cell lines differed in their response to treatment with the fusion proteins.

OPM-1 = assay: MTS assay (cell viability / metabolic activity); type: cell-based, human
Protocol: as §3, §4

8226/Dox40 = assay: MTS assay (cell viability / metabolic activity); type: cell-based, human; details: 8226/Dox40, 3 days
Protocol: as §3, §4

S6B45 = assay: MTS assay (cell viability / metabolic activity); type: cell-based, human; details: S6B45, 3 days
Protocol: as §3, §4

XG-2 = assay: MTS assay (cell viability / metabolic activity); type: cell-based, human; details: XG-2, 3 days
Protocol: as §3, §4

XG-1 = assay: MTS assay (cell viability / metabolic activity); type: cell-based, human; details: XG-1, 3 days
Protocol: as §3, §4

OCI-My 5 tumors = assay: OCI-My5 xenograft model in SCID mice; type: in vivo, mouse; details: OCI-My5 s.c.
From the text: Eight mice were included in each group.
Each group consisted of eight mice.

OCI-My5 [2] = assay: Senescence induced β-gal activity at pH 6 (C12FDG, flow cytometry); type: cell-based, human
Protocol: (§5) Senescence induced β-galactosidase (β-gal) activity was detected as described previously (Debacq-Chainiaux et al. (2009) Nature Protocols, 4: 1798-1806). […] To induce lysosomal alkalinization, cells were incubated in 100 nM bafilomycin A1 (Sigma) for 1 h. Then cells were incubated for 30 min with the β-gal substrate dodecanoylaminofluorescein di-β-D-galactopyranoside (C12FDG; Invitrogen), which becomes fluorescent after cleavage by β-gal. After washing twice with cold PBS, cells were resuspended in cold PBS containing 1 mM phenylethyl thiogalactoside (PETG), a β-gal inhibitor, and analyzed by flow cytometry for C12-fluorescein.
(§6) Intracellular β-galactosidase (β-gal) activity was measured as an indicator for replicative senescence. […] After treatment, cells were incubated with 100 nM bafilomycin A1 (Sigma) for 1 hour to induce lysosomal alkalinization. Then cells were incubated for 30 minutes with the 33 μM of β-gal substrate dodecanoylaminofluorescein di-β-D-galactopyranoside (C12FDG; Invitrogen), which becomes fluorescent after cleavage to C12-fluorescein. After washing twice with cold PBS, cells were resuspended in cold PBS containing 1 mM phenylethyl thiogalactoside (PETG), a β-gal inhibitor, and analyzed by flow cytometry for C12-fluorescein.

NCI-H929 = assay: as above; type: cell-based, human; details: 1 nM, 3 days, listed as anti-CD138-IFNα2
Protocol: as §5, §6

Daudi cells = assay: MTS cell viability assay; type: cell-based, human; details: 72 h / 3 day incubation
Protocol: as §3
Metabolic activity was determined using MTS solution (Promega) by measuring absorbance at 490 nm using a Synergy HT Multi-Detection Microplate Reader (BioTek Instruments Inc.) with untreated cells being 100%. GraphPad Prism (GraphPad Software Inc.) was used to analyze data by non-linear regression with the log (inhibitor) versus the response with a variable slope. Data are expressed as a percentage of maximum metabolic activity. The experiments were performed in triplicate.

OCI-My 5 cells = assay: Cell proliferation assay (3[H]-thymidine incorporation); type: cell-based, human; details: OCI-My 5, 0.3 pM-25 nM, 3 days
Protocol: The proliferative status of the cells was determined by measuring ^3[H]-thymidine incorporation.

OPM-2 = assay: MTS assay (cell viability / metabolic activity); type: cell-based, human
Protocol: as §3
To determine if the HMCLs were sensitive to treatment with IFNα fusion protein, HMCLs were incubated with varying concentrations of anti-CD138-IFNα, and cell viability was assessed. Anti-CD138-IFNα was used to target IFNα to the MM cell lines while anti-CD20-IFNα was used as an untargeted control. […] The MM cell lines differed in their response to treatment with the fusion proteins.

Substance: anti-CD138-IFNα: Fusion protein: murine B-B4 anti-CD138 variable regions, human IgG1κ constant regions, human IFNα2 fused to the antibody C-terminus via SGGGGS linker
- % G1 (OCI-My5 [1]): 25.6%
- % G2/M (OCI-My5 [1]): 20.5%
- % S (OCI-My5 [1]): 49.0%
- >G2 (OCI-My5 [1]): 1.5%
- Sub G0/G1 (OCI-My5 [1]): 17.9%
- changes in cell cycle / DNA content, result in words (OCI-My5 [1]): did not cause apoptosis or blocks to cell cycle progression
- % G1 (MM1-144): 22.6%
- % G2/M (MM1-144): 34.3%
- % S (MM1-144): 29.9%
- >G2 (MM1-144): 11.2%
- Sub G0/G1 (MM1-144): 11.3%
- % G1 (ANBL-6): 63.6%
- % G2/M (ANBL-6): 18.0%
- % S (ANBL-6): 14.0%
- >G2 (ANBL-6): 0.0%
- Sub G0/G1 (ANBL-6): 19.6%
- cell viability (MTS assay), result in words (Delta 47; Delta 47, 3 days): little or no effect
- cell viability (MTS assay), result in words (Delta 47; Delta 47, treatment increased to 4 days (data not shown)): decrease in viability
- cell viability (MTS assay), result in words (OPM-1; OPM-1, 3 days): little or no effect
- cell viability (MTS assay), result in words (OPM-1; OPM-1, treatment increased to 4 days (data not shown)): decrease in viability
- cell viability (MTS assay), result in words (8226/Dox40): intermediate effect
- cell viability (MTS assay), result in words (8226/Dox40; listed as Anti-CD138-IFNα2): some effect was observed only at high concentrations
- cell viability (MTS assay), result in words (S6B45): intermediate effect
- cell viability (MTS assay), result in words (S6B45; listed as Anti-CD138-IFNα2): some effect was observed only at high concentrations
- cell viability (MTS assay), result in words (XG-2): little or no effect
- cell viability (MTS assay), result in words (XG-1): little or no effect
- survival / protection, result in words (OCI-My 5 tumors; 100 μg i.v. on days 14, 16, 18): significant increase in survival
- survival / protection, result in words (OCI-My 5 tumors; 100 μg i.v. on days 14, 16, 18, listed as anti-CD138-IFNα2): greater protection
- β-gal activity at pH 6 (senescence), result in words (OCI-My5 [2]; OCI-My5, 1 nM, 3 days (also 4, 6, 7 days)): little or no increase in β-gal activity
- Mode of Action of anti-CD138-IFNα fusion (OCI-My5 [2]; OCI-My 5, footnote †): senescence†
- β-gal activity at pH 6 (senescence), result in words (NCI-H929): increases in β-gal activity; also recorded: greater effect than with IFNα2 alone
- cell viability (MTS assay), result in words (Daudi cells): just as effective as recombinant IFNα
- proliferation (3[H]-thymidine incorporation), result in words (OCI-My 5 cells): greater effect than IFNα alone
- cell viability (MTS assay), result in words (OPM-2; OPM-2, 3 days): little or no effect
- cell viability (MTS assay), result in words (OPM-2; OPM-2, treatment increased to 4 days (data not shown)): decrease in viability
